Measurements reported in patent US20240148710A1, “INHIBITORS OF CYTOCHROME P450 FAMILY 7 SUBFAMILY B MEMBER 1 (CYP7B1) FOR USE IN MOBILIZATION OF HEMATOPOIETIC STEM AND PROGENITOR CELLS” (priority 2022, published 2024).
Entries after “also recorded” stand apart in the source; their conditions may differ.

How the values were obtained:
HSCs [1] = experiment: HSC proliferation and mobilization in mice treated with ERα ligands; format: in vivo; conditions: E2: male mice and non-pregnant females
Text: However, the mechanism by which E2 and 27HC, two endogenous ERα ligands, differentially regulate HSCs is unknown. […] E2 levels increase during pregnancy, when extramedullary hematopoiesis (EMH) is induced to increase the production of red blood cells. In addition to increased HSC proliferation, EMH during pregnancy requires increased HSC mobilization, which the present inventors found to also depend on ERα in HSCs. […] Thus, through their differential effects on HSC behavior in vivo—E2 and 27HC act in concert to promote hematopoiesis during pregnancy.

colony-forming HSPCs [2] = experiment: Mobilization of colony-forming HSPCs into the peripheral blood of mice (CFU count of PBMCs in methylcellulose culture); format: in vivo, C57BL/6 mice
Method: To test whether co-administration of 27HC with G-CSF plus another clinically-used HSC mobilizing agent, AMD3100 (a CXCR4 chemokine receptor antagonist that is also known as plerixafor), further enhances HSC mobilization. Two-month-old C57BL/6 mice were treated with a single agent alone, a combination of two agents (27HC+AMD3100, or G-CSF+AMD3100), all three agents combined, or vehicle alone (2-hydroxypropyl-β-cyclodextrin for 27HC, PBS for G-CSF, and PBS for AMD3100).
(§1) Mice were treated with 27HC (10 mg/kg/day) and/or G-CSF (250 μg/kg/day) for 4 days and then treated with AMD3100 (5 mg/kg) one hour before the peripheral blood collection (FIG. 1). Peripheral blood mononuclear cells (PBMCs) were isolated by density gradient centrifugation, and were seeded in the methylcellulose culture medium. Colonies were counted after 12 days of culture.
(§2) This experiment was performed as described in Example 1, except, clotrimazole (50 mg/kg/day) was used instead of 27HC.

HSCs [3] = conditions: recently demonstrated; cited from earlier work
colony-forming HSPCs [4] = conditions: AMD3100 s.c. injection; cited from earlier work
colony-forming HSPCs [5] = experiment: Mobilization of colony-forming HSPCs into the peripheral blood of sickle cell model mice (CFU count); format: in vivo, sickle cell model mice (Townes model mice); conditions: clotrimazole 50 mg/kg/day i.p. for 4 days, AMD3100 s.c. one hour before analyses, FIGS. 4A, 4B
Method: as §1, §2

colony-forming HSPCs [6] = experiment: Mobilization of colony-forming HSPCs into the peripheral blood of mice (CFU count of PBMCs in methylcellulose culture); format: in vivo, C57BL/6 mice; conditions: 50 mg/kg/day oral gavage for 4 days, AMD3100 s.c. one hour before analyses, no G-CSF; trends; FIGS. 5A, 5B

Row | SMILES | Effect of administration on HSC proliferation and mobilization (found by the present inventors) (HSCs [1]) | Effect of treatment of mice on HSC proliferation and mobilization (HSCs [3]) | CFUs (including CFU-gmEM) in the peripheral blood, two-agent combination with AMD3100 versus AMD3100 single agent (colony-forming HSPCs [6]) | further results
1 | C[C@@H](CO)CCC[C@@H](C)[C@H]1CC[C@H]2[C@@H]3CC=C4C[C@@H](O)CC[C@]4(C)[C@H]3CC[C@]12C [27HC, 27-hydroxycholesterol] | induces HSC mobilization (but not proliferation) | induces ERα-dependent HSC mobilization but not proliferation | – | CFUs (including CFU-gmEM) in the peripheral blood, three-agent combination with G-CSF and AMD3100 versus G-CSF and AMD3100 (colony-forming HSPCs [2]; 27HC 10 mg/kg/day and G-CSF 250 μg/kg/day s.c. for 4 days, AMD3100 5 mg/kg one hour before collection, FIGS. 2C, 2D): significantly more CFUs, including CFU-gmEM, than the two-agent combination treatment with G-CSF and AMD3100; also recorded: mobilized more colony-forming HSPCs as compared to a single agent alone or a combination of two agents; CFUs in the peripheral blood, two-agent combination with AMD3100 versus AMD3100 single agent (colony-forming HSPCs [2]; 27HC 10 mg/kg/day s.c. for 4 days, AMD3100 5 mg/kg s.c. one hour before blood collection, FIGS. 2A, 2B): significantly more CFUs than the AMD3100 single-agent treatment; also recorded: mobilized colony-forming HSPCs significantly more than AMD3100 alone; HSC mobilization on treating mice with 27HC (colony-forming HSPCs [2]; FIG. 2): promotes HSC mobilization
2 | c1cc(CN2CCCNCCNCCCNCC2)ccc1CN1CCCNCCNCCCNCC1 [AMD3100] | – | – | – | Time of peak mobilization of HSCs after AMD3100 injection (colony-forming HSPCs [4]): one hour post administration
3 | C[C@]12CC[C@@H]3c4ccc(O)cc4CC[C@H]3[C@@H]1CC[C@@H]2O [E2, 17β-estradiol] | induces HSC proliferation but not mobilization | induces HSC proliferation but not mobilization | – | –
4 | Clc1ccccc1C(c1ccccc1)(c1ccccc1)n1ccnc1 [clotrimazole] | – | – | synergistic effects with the single-agent AMD3100 treatment | CFUs (including CFU-gmEM) in the peripheral blood, two-agent combination with AMD3100 versus AMD3100 single agent (colony-forming HSPCs [5]): significantly more CFUs, including CFU-gmEM, than the single-agent AMD3100 treatment; CFUs (including CFU-gmEM) in the peripheral blood, three-agent combination with G-CSF and AMD3100 versus G-CSF and AMD3100 (colony-forming HSPCs [2]; clotrimazole 50 mg/kg/day i.p. for 4 days, G-CSF s.c. for 4 days, AMD3100 one hour before analyses, FIGS. 3C, 3D): more CFUs, including CFU-gmEM, than the two-agent combination treatment with G-CSF and AMD3100; CFUs in the peripheral blood, two-agent combination with AMD3100 versus AMD3100 single agent (colony-forming HSPCs [2]; clotrimazole 50 mg/kg/day i.p., AMD3100 s.c. one hour before analyses, FIGS. 3A, 3B): significantly more CFUs than the single-agent AMD3100 treatment
5 | CC(C)(C(=O)c1cccnc1)c1cccnc1 [metyrapone] | – | – | generated more CFUs, including CFU-gmEM, than the single-agent AMD3100 treatment | –
6 | C[C@@H](c1ncncc1F)[C@](O)(Cn1cncn1)c1ccc(F)cc1F [voriconazole] | – | – | generated more CFUs, including CFU-gmEM, than the single-agent AMD3100 treatment | –
